Key:
Experiment in all cases: NanoBRET CELLinib128
Assay type in all cases: binding
CDK4-CCND3 = molecular target: T1, CDK4-CCND3 (Homo sapiens, UniProt P11802); settings: 100% no effect, 0% complete tracer displacement, read-out: Tracer bound
T1 construct: Full-length kinase ORF (Promega, Madison, WI, USA) cloned in frame with a NanoLuc-vector was transfected into HEK293T cells; host or cells: HEK293T
Description: (§1) To get an impression about the binding strength of the PROTAC MA191 and the reference inhibitor MA68 to other kinases besides FLT3-ITD the binding on a kinase panel of further 128 representative protein kinases at 1 μM concentration was tested using the NanoBRET^TM cellular target engagement assay (CELLinib128 assay, CELLinib GmbH, Frankfurt, Germany). […] In none of the 128 kinases MA191 was able to displace the tracer (inhibitor) used by more than 50%, Table S1, Supplementary Information).
(§2) The CELLinib128 assay was performed by CELLinib GmbH, Frankfurt (Germany) as described previously. In brief: Full-length kinase ORF (Promega, Madison, WI, USA) cloned in frame with a NanoLuc-vector was transfected into HEK293T cells in Opti-MEM without phenol red (Life Technologies, Carlsbad, CA, USA) at a density of 2 × 10^5 cells/mL using FuGENE HD (Promega, E2312) and proteins were allowed to express for 20 h. For CDKs, where indicated below, an excess of an activator without an NLuc-fusion was cotransfected. […] The system was allowed to equilibrate at 37 °C for 2 h and 5% CO2 prior to BRET measurements. For PKCs, a chemical activator PMA was added in a final concentration of 1 µM was added together with test compounds and tracers (Promega, V1171). To measure BRET, NanoBRET^TM NanoGlo substrate + extracellular NanoLuc inhibitor (Promega, N2160) were added as per the manufacturer’s protocol, and filtered luminescence was measured (450 nm BP filter (donor) and 610 nm LP filter (acceptor)). For the 1-shot test compounds, data were normalized to the tracer control and the background control or control compound plateau and an average and SD were calculated. […] For the control compounds competitive displacement data were normalized to the tracer Ctrl and the background Ctrl and then plotted and fitted using GraphPad Prism 10 software using a normalized 3-parameter curve fit with the following equation: Y = 100/(1 + 10^X−LogIC50).

NUAK1 = molecular target: T2, NUAK1 (Homo sapiens, UniProt O60285); settings: 1 µM; 100% no effect, 0% complete tracer displacement
T2 construct: Full-length kinase ORF (Promega, Madison, WI, USA) cloned in frame with a NanoLuc-vector was transfected into HEK293T cells; host or cells: HEK293T
Description: as §1, §2

TNNI3K = molecular target: T3, TNNI3K (Homo sapiens, UniProt Q59H18); settings: 100% no effect, 0% complete tracer displacement, read-out: Tracer bound
T3 construct: Full-length kinase ORF (Promega, Madison, WI, USA) cloned in frame with a NanoLuc-vector; host or cells: HEK293T
Description: as §1, §2

RPS6KA1 = molecular target: T4, RPS6KA1 (Homo sapiens, UniProt Q15418); settings: 100% no effect, 0% complete tracer displacement, read-out: Tracer bound
T4 construct: Full-length kinase ORF (Promega, Madison, WI, USA) cloned in frame with a NanoLuc-vector was transfected into HEK293T cells; host or cells: HEK293T
Description: as §1, §2

CDK20-CCNH = molecular target: T5, CDK20-CCNH (Homo sapiens, UniProt Q8IZL9); settings: 100% no effect, 0% complete tracer displacement, read-out: Tracer bound
T5 construct: Full-length kinase ORF (Promega, Madison, WI, USA) cloned in frame with a NanoLuc-vector was transfected into HEK293T cells; host or cells: HEK293T
T5 sequence (Q8IZL9 whole entry): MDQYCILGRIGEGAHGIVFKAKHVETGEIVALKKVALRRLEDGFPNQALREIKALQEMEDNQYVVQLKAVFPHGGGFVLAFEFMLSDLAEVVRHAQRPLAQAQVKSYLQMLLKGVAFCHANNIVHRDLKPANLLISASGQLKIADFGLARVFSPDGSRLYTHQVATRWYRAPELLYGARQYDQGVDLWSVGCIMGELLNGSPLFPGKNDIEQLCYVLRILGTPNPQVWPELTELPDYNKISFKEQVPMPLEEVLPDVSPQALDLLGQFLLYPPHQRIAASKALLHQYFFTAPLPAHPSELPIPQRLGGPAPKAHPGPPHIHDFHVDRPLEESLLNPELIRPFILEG
T5 sequence (P51946 whole entry partner): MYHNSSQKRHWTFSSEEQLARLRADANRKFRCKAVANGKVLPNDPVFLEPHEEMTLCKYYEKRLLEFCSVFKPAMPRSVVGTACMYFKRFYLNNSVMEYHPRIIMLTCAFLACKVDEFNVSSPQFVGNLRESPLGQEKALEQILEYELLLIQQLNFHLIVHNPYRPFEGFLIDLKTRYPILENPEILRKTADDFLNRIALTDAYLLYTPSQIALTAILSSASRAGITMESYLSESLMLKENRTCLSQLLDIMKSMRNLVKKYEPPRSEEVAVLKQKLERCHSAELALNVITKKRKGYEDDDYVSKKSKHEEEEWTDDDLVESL
Description: as §1, §2

RET = molecular target: T6, RET (Homo sapiens, UniProt P07949); settings: 100% no effect, 0% complete tracer displacement, read-out: Tracer bound
T6 construct: Full-length kinase ORF (Promega, Madison, WI, USA) cloned in frame with a NanoLuc-vector was transfected into HEK293T cells; host or cells: HEK293T
T6 sequence (P07949 29-1114): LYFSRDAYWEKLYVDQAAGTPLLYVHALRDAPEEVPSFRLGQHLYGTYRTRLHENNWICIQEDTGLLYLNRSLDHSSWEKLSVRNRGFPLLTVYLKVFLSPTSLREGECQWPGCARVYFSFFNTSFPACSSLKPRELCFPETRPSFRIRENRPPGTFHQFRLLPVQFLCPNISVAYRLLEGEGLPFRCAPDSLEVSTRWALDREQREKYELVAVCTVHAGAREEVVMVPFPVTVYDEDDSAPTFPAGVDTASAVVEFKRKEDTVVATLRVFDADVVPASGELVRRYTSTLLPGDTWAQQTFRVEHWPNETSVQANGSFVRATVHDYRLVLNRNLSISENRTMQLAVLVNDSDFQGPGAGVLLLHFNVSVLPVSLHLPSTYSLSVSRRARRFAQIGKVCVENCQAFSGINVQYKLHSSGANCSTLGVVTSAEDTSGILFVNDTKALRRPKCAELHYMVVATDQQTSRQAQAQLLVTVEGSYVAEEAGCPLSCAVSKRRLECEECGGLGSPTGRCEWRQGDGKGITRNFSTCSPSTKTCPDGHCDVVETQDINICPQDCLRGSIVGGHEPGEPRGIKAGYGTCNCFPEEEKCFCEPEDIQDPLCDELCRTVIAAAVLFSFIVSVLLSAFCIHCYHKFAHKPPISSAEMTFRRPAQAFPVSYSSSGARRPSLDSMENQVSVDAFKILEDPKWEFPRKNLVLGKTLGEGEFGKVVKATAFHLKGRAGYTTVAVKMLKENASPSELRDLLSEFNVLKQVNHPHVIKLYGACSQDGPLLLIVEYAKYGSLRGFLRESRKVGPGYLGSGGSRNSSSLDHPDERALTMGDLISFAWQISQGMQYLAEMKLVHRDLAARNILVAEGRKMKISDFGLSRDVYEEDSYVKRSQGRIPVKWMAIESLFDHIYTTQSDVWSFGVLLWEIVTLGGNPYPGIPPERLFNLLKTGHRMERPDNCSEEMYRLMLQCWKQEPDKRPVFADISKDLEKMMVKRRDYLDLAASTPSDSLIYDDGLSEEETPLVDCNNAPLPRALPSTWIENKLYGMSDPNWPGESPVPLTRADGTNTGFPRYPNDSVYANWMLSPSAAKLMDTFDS
Description: as §1, §2

RPS6KA3 = molecular target: T7, RPS6KA3 (Homo sapiens, UniProt P51812); settings: 100% no effect, 0% complete tracer displacement, read-out: Tracer bound
T7 construct: Full-length kinase ORF (Promega, Madison, WI, USA) cloned in frame with a NanoLuc-vector was transfected into HEK293T cells; host or cells: HEK293T
Description: as §1, §2

TYK2 = molecular target: T8, TYK2 (Homo sapiens, UniProt P29597); settings: 1 µM; 100% no effect, 0% complete tracer displacement
T8 construct: Full-length kinase ORF (Promega, Madison, WI, USA) cloned in frame with a NanoLuc-vector; host or cells: HEK293T
T8 sequence (P29597 whole entry): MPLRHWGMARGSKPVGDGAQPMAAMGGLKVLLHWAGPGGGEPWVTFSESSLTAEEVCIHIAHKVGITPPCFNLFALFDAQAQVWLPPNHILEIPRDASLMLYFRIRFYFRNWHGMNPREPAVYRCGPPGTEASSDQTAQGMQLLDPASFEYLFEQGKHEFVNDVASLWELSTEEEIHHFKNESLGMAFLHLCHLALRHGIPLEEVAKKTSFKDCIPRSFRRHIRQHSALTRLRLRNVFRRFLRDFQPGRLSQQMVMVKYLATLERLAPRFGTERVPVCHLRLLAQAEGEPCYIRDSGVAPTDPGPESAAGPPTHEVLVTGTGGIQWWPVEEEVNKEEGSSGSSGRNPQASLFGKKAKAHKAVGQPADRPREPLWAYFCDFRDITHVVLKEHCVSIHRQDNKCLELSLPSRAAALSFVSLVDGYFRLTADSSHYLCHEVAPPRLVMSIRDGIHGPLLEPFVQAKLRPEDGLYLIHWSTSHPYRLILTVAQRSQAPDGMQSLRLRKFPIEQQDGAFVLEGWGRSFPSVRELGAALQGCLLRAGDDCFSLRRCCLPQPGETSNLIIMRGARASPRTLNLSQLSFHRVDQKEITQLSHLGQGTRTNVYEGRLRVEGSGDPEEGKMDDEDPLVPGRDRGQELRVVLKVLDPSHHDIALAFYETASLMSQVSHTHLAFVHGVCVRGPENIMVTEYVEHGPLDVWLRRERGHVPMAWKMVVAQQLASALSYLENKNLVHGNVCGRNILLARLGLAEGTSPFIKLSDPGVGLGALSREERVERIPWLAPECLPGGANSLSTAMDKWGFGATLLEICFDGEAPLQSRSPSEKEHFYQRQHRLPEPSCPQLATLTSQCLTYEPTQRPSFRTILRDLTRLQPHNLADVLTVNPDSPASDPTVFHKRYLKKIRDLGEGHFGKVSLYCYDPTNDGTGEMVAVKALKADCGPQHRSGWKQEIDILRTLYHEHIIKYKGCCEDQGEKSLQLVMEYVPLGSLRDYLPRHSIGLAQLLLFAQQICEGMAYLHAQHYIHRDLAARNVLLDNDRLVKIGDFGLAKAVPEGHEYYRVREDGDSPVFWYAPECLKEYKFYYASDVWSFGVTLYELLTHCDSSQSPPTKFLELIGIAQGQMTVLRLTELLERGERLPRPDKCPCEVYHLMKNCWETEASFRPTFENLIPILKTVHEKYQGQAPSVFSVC
Description: as §1, §2

MYLK3 = molecular target: T9, MYLK3 (Homo sapiens, UniProt Q32MK0); settings: 100% no effect, 0% complete tracer displacement, read-out: Tracer bound
T9 construct: Full-length kinase ORF (Promega, Madison, WI, USA) cloned in frame with a NanoLuc-vector was transfected into HEK293T cells; host or cells: HEK293T
Description: as §1, §2

WEE2 = molecular target: T10, WEE2 (Homo sapiens, UniProt P0C1S8); settings: 100% no effect, 0% complete tracer displacement, read-out: Tracer bound
T10 construct: Full-length kinase ORF (Promega, Madison, WI, USA) cloned in frame with a NanoLuc-vector; host or cells: HEK293T
T10 sequence (P0C1S8 whole entry): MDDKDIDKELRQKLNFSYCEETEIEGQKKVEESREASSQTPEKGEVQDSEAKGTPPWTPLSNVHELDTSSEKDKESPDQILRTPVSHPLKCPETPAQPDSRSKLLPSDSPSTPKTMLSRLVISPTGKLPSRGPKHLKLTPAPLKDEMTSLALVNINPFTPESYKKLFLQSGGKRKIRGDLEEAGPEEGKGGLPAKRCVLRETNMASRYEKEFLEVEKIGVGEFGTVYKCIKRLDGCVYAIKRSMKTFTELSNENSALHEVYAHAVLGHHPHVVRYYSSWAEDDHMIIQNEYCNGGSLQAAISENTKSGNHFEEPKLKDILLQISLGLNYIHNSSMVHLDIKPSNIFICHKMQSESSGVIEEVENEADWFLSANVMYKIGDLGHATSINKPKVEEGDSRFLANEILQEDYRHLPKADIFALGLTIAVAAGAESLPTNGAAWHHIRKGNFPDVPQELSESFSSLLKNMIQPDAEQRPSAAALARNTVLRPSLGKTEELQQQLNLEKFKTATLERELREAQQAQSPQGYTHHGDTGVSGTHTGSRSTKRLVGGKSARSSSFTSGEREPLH
Description: as §1, §2

AURKA = molecular target: T11, AURKA (Homo sapiens, UniProt O14965); settings: 100% no effect, 0% complete tracer displacement, read-out: Tracer bound
T11 construct: Full-length kinase ORF (Promega, Madison, WI, USA) cloned in frame with a NanoLuc-vector was transfected into HEK293T cells; host or cells: HEK293T
T11 sequence (O14965 whole entry): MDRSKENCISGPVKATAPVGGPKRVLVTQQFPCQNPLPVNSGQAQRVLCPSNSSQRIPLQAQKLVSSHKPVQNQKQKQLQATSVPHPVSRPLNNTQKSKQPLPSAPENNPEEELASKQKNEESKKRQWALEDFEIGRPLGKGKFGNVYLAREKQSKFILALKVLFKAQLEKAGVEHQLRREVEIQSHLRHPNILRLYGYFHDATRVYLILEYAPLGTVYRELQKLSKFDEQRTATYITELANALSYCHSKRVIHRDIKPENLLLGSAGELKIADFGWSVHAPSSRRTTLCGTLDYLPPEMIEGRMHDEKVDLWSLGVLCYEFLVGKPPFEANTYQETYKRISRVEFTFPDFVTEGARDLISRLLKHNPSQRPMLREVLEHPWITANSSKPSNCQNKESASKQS
Description: as §1, §2

PRKAA1 = molecular target: T12, PRKAA1 (Homo sapiens, UniProt Q13131); settings: 100% no effect, 0% complete tracer displacement, read-out: Tracer bound
T12 construct: Full-length kinase ORF (Promega, Madison, WI, USA) cloned in frame with a NanoLuc-vector was transfected into HEK293T cells; host or cells: HEK293T
Description: as §1, §2

RPS6KA2 = molecular target: T13, RPS6KA2 (Homo sapiens, UniProt Q15349); settings: 100% no effect, 0% complete tracer displacement, read-out: Tracer bound
T13 construct: Full-length kinase ORF (Promega, Madison, WI, USA) cloned in frame with a NanoLuc-vector was transfected into HEK293T cells; host or cells: HEK293T
Description: as §1, §2

MAPK6 = molecular target: T14, MAPK6 (Homo sapiens, UniProt Q16659); settings: 100% no effect, 0% complete tracer displacement, read-out: Tracer bound
T14 construct: Full-length kinase ORF (Promega, Madison, WI, USA) cloned in frame with a NanoLuc-vector was transfected into HEK293T cells; host or cells: HEK293T
Description: as §1, §2

STK38L = molecular target: T15, STK38L (Homo sapiens, UniProt Q9Y2H1); settings: 100% no effect, 0% complete tracer displacement, read-out: Tracer bound
T15 construct: Full-length kinase ORF (Promega, Madison, WI, USA) cloned in frame with a NanoLuc-vector was transfected into HEK293T cells; host or cells: HEK293T
T15 sequence (Q9Y2H1 whole entry): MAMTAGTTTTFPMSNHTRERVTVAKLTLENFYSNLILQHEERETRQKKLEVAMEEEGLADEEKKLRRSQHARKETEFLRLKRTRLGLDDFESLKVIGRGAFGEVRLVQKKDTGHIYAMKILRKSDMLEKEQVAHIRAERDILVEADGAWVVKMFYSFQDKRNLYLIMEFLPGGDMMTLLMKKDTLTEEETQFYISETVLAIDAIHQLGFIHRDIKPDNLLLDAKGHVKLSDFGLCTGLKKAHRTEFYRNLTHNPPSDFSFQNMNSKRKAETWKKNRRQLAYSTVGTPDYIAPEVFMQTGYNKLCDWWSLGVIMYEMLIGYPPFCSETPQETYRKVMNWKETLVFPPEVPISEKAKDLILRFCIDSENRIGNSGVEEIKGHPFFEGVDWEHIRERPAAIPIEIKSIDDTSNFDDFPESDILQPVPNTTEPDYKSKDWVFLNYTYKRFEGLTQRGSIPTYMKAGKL
Description: as §1, §2

T1 sequence (P11802 whole entry): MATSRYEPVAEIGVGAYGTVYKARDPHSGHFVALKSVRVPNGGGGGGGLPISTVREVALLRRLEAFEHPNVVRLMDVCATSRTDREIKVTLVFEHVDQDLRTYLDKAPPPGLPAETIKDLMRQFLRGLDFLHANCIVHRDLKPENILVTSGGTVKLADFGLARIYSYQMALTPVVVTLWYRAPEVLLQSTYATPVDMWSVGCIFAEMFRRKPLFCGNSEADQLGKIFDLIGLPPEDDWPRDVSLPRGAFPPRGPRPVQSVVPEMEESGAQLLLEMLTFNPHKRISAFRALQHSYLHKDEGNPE
T1 sequence (P30281 whole entry partner): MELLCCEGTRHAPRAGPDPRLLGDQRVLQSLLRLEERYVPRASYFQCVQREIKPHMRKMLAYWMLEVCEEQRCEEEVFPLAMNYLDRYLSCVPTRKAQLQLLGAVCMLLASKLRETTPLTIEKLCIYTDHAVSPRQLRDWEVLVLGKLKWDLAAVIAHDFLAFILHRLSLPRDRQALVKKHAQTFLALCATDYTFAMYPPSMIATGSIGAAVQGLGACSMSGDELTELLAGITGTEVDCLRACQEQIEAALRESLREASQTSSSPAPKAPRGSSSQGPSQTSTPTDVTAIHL

Q: For Cc1ncsc1-c1ccc([C@H](C)NC(=O)[C@@H]2C[C@@H](O)CN2C(=O)[C@@H](NC(=O)[C@H]2CC[C@H](C(=O)N3CCN(CCNC(=O)c4cc(Oc5ccc(NC(=O)Nc6cc(C(C)(C)C)on6)cc5)ccn4)CC3)CC2)C(C)(C)C)cc1 [MA191, 4-(4-(3-(5-(tert-Butyl)isoxazol-3-yl)ureido)phenoxy)-N-(2-(4-(trans-4-(((S)-1-((2S,4R)-4-hydroxy-2-(((S)-1-(4-(4-methylthiazol-5-yl)phenyl)ethyl)carbamoyl)pyrrolidin-1-yl)-3,3-dimethyl-1-oxobutan-2-yl)carbamoyl)cyclohexanecarbonyl)piperazin-1-yl)ethyl)picolinamide], which remaining activity at 1 µM (CDK4-CCND3) is on record?
A: 105%

Q: What about the Tracer bound (NUAK1) of the same compound?
A: 120.0%

Q: And the remaining activity at 1 µM (TNNI3K)?
A: 83.2%

Q: And the remaining activity at 1 µM (RPS6KA1)?
A: 110%

Q: And the remaining activity at 1 µM (CDK20-CCNH)?
A: 108%

Q: And the remaining activity at 1 µM (RET)?
A: 83.5%

Q: And the remaining activity at 1 µM (RPS6KA3)?
A: 120%

Q: What about the Tracer bound (TYK2) of the same compound?
A: 105.6%

Q: And the remaining activity at 1 µM (MYLK3)?
A: 108%

Q: What about the remaining activity at 1 µM (WEE2) of the same compound?
A: 99.3%

Q: And the remaining activity at 1 µM (AURKA)?
A: 120%

Q: And the remaining activity at 1 µM (PRKAA1)?
A: 110%

Q: What about the remaining activity at 1 µM (RPS6KA2) of the same compound?
A: 114%

Q: And the remaining activity at 1 µM (MAPK6)?
A: 120%

Q: And the remaining activity at 1 µM (STK38L)?
A: 90%

From PMC13210772, “Dual FLT3/MAPK14 Proteolysis-Targeting Chimera (PROTAC) Induces Potent Acute Myeloid Leukemia Cell Death” (Pharmaceuticals, 2026)
